Measured values: patent US20150004110A1, “NOVEL ANTI-AGING AND DEPIGMENTING COSMETIC COMPOSITIONS” (DIVERCHIM, priority 2011, published 2015)

Key:
B16 melanocytes = experiment: Cell viability, MTT reduction test; format: cell-based; settings: B16, 72 h, Table 2
Description: The melanocytes were seeded in a 96-well plate and were cultured for 24 h (37° C., 5% CO2, DMEM 1 g/L glucose without phenol red supplemented with glucose at 3 g/L, L-glutamine at 2 mM, penicillin at 50 U/mL, streptomycin at 50 μg/mL, foetal calf serum (FCS) at 10%). After incubation, the culture medium was then replaced with culture medium supplemented or not supplemented (unstimulated control) with a stable derivative of α-MSH and containing or not containing (controls) the test compounds or the reference (kojic acid at 25, 100, 400, 800 μg/mL). Each experiment was carried out with n=3, apart from the controls carried out with n=6, then the cells were incubated for 72 h. Wells without cells received in parallel the same quantities of medium supplemented or not supplemented with NDP-MSH and containing or not containing the test compounds or the reference in order to quantify the background noise associated with the presence of the compounds. At the end of the treatment, the cells were incubated in the presence of MTT (tetrazolium salt), the transformation of which to blue crystals of formazan is proportional to the activity of succinate dehydrogenase (mitochondrial enzyme). After dissociation of the cells, the formazan was dissolved in DMSO medium and the optical density (OD), representative of the number of living cells and of their metabolic reactivity, was measured with a microplate reader at 540 nm (VERSAmax, Molecular Devices). The operating conditions are the same as in Example 12.

[1] = test system: B16 melanocytes stimulated with NDP-MSH; experiment: Anti-melanogenesis activity: melanin synthesis in B16 melanocytes stimulated with NDP-MSH; format: cell-based; settings: NDP-MSH stimulated B16, 72 h, Table 2
Description: The depigmenting effect was evaluated on a line of type B16 melanocytes stimulated with NDP-MSH, (natural hormone stimulating melanogenesis; Melanocyte Stimulating Hormone, [Nle, DPhe]-α-MSH). Melanin synthesis was evaluated.
The anti-melanogenesis activity of the compounds in solution in DMSO was evaluated by measuring melanin synthesis in a model of B16 melanocytes stimulated with a stable derivative of α-MSH (natural melanogenesis stimulating hormone): NDP-MSH.
The melanocytes were seeded in a 96-well plate and were cultured for 24 h (37° C., 5% CO2, DMEM 1 g/L glucose without phenol red supplemented with glucose at 3 g/L, L-glutamine at 2 mM, penicillin at 50 U/mL, streptomycin at 50 μg/mL, foetal calf serum (FCS) at 10%). After incubation, the culture medium was then replaced with culture medium supplemented or not supplemented (unstimulated control) with a stable derivative of α-MSH and containing or not containing (controls) the test compounds or the reference (kojic acid at 25, 100, 400, 800 μg/mL). Each experiment was carried out with n=3, apart from the controls carried out with n=6, then the cells were incubated for 72 h. Wells without cells received in parallel the same quantities of medium supplemented or not supplemented with NDP-MSH and containing or not containing the test compounds or the reference in order to quantify the background noise associated with the presence of the compounds.
After incubation for 72 hours, the total melanin (intra- and extracellular) was quantified by measuring the absorption at 405 nm of each sample (direct reading of the culture plates) against a standard range of melanin (melanin concentrations tested from 0.78 to 100 μg/mL). The background noise, measured in the wells without cells, was subtracted from the measured values so as only to take into account the effect connected with melanin production, without taking into account the possible interference connected with the presence of the compounds. The results were expressed as percentage of melanin relative to the control as well as percentage inhibition.
The operating conditions are the same as in Example 12.

[2] = Melanocyte, 30 μM, read-out: Standardized data Inhibition (%) (melanin)
[3] = Melanocyte, 100 μM, read-out: Standardized data Inhibition (%) (melanin)

Row | SMILES | Viability (MTT) % stimulated control (B16 melanocytes; 30 μM) [%] | Viability (MTT) % stimulated control (B16 melanocytes; 100 μM) [%] | inhibition at 30 µM [1, 2] [%] | inhibition at 100 µM [1, 3] [%] | Standardized data Inhibition (%) (melanin) ([1]; 30 μM) | Standardized data Inhibition (%) (melanin) ([1]; 100 μM) | Viability (MTT) % stimulated control (B16 melanocytes; 3 μM) [%] | Viability (MTT) % stimulated control (B16 melanocytes; 10 μM) [%] | inhibition at 3 µM ([1]; Melanocyte, 3 μM, read-out: Standardized data Inhibition (%) (melanin)) | inhibition at 10 µM ([1]; Melanocyte, 10 μM, read-out: Standardized data Inhibition (%) (melanin))
1 | Cc1ccc(OCCc2ccccc2O)cc1 [Compound 2] | 108 | 34 | 100 | 112 |  |  |  |  |  | 
2 | Oc1ccccc1CCOc1ccc(Br)cc1 [Compound 3] | 96 | 0 | 110 | 112 |  |  |  |  |  | 
3 | COc1ccc(OCCc2ccccc2O)cc1 [Compound 4] | 97 | 54 |  |  | 95 | 111 |  |  |  | 
4 | Oc1ccccc1CCOc1ccccc1 [Compound 5] | 103 | 67 |  |  | 49 | 111 |  |  |  | 
5 | Fc1ccc(OCCc2ccccc2Br)cc1 [Compound 8] | 94 | 93 |  |  | −27 | 50 |  |  |  | 
6 | Fc1ccc(OCCc2ccccc2C(F)(F)F)cc1 [Compound 10] | 87 | 91 | -11 | 27 |  |  |  |  |  | 
7 | Cc1cccc(CCOc2ccc(F)cc2)c1 [Compound 11] | 83 | 109 | -2 | 44 |  |  |  |  |  | 
8 | COc1ccc(OCCc2ccccc2OC)cc1 [Compound 14] | 89 | 80 | -22 | 100 |  |  |  |  |  | 
9 | COc1ccccc1CCOc1ccc(F)cc1 [Compound 16] | 87 | 83 | -33 | 52 |  |  |  |  |  | 
10 | COc1ccccc1C1(COc2ccc(F)cc2)CC1 [Compound 18] | 80 | 75 | -21 | 105 |  |  |  |  |  | 
11 | O=[N+]([O-])c1ccc(OCCc2ccccc2O)cc1 [Compound 19] | 91 | 0 | 82 | 111 |  |  |  |  |  | 
12 | Oc1ccccc1CCOc1ccc(OCc2ccccc2)cc1 [Compound 20] | 59 |  | 115 |  |  |  | 106 | 84 | 83 | 108
13 | CC(=O)Nc1ccc(OCCc2ccccc2OC(C)=O)cc1 [Compound 22] | 97 | 86 | -3 | 61 |  |  |  |  |  | 
14 | Oc1ccccc1C(O)COc1ccc(F)cc1 (stereo not drawn) [Compound 24] | 76 | 78 | -12 | 84 |  |  |  |  |  | 
15 | Fc1ccc(CCOc2ccccc2OCc2ccccc2)cc1 [Compound 25] | 93 |  | 46 |  |  |  |  |  |  | 
